From PMC8574098 (Journal of natural products, 2021)

Biological target: matrix metalloproteinase-3 (MMP-3) (Homo sapiens, UniProt P08254)
Test: MMP-3 enzyme inhibition assay
Format: biochemical

Chain of matrix metalloproteinase-3 (MMP-3) (P08254 100-477): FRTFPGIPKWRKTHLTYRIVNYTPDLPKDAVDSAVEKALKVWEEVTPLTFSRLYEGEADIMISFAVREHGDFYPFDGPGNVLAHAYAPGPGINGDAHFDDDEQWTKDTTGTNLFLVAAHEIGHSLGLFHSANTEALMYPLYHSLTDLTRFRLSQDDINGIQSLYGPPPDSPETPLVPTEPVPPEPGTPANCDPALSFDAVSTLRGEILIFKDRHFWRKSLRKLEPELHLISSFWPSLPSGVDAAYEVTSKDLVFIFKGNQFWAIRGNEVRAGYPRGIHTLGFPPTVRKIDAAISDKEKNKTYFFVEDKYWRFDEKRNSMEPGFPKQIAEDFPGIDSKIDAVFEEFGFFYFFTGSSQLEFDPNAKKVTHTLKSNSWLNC

IC50: 50 µM
Substance: berkeleypenostatin E [compound 5]
